Data set [1] in a line: Antiproliferative activity against human THP1 cells after 72 hrs by XTT assay. Type of data set: functional, cell-based. Conditions: THP-1, 72 h. (In general: Formazan colour is commonly taken as a measure of viable cells.)
Data set [2] in a line: Induction of hydrogen peroxide generation at 100 uM after 30 mins by xylenol orange staining-based spectrophotometry in presence of GSH and oxygen. It is filed as physicochemical. The conditions noted are these: 0.5 h.
Data set [3] has as its system HEK293. The data set is described as follows: Antiproliferative activity against HEK293 cells after 72 hrs by XTT assay. It is filed as cell-based. Conditions: Homo sapiens, HEK293, 72 h.
The nature of data set [4]: Antiproliferative activity against human glioma cells. It is filed as functional, cell-based. Conditions: Glioma cell.
Data set [5] relates to HEK293. Description: Selectivity index, ratio of IC50 for HEK293 cells to IC50 for human THP1 cells. It is filed as functional.

pIC50: −log10 of the molar value.

One may read the pIC50 as −log10 of the IC50, conventionally taken in molar units. Higher therefore signals a low IC50. With `O=C1c2ccccc2C(=O)C2OC12` (stereo not given), the values for the pIC50 in data set [1] and in data set [3] were 5.20 and 4.72, respectively. Moreover, the Activity in data set [2] stood at 4.4 µM.

Molecule `CC12OC1C(=O)c1c(O)cccc1C2=O` (stereo not given) gave a pIC50 in data set [1] of 4.64. Also, the Activity in data set [2] stood at 1.6 µM.

Turning to `O=C1c2cccc([N+](=O)[O-])c2C(=O)C2OC12` (stereo not given), the negative logarithm of the IC50 (pIC50) was 5.44 in data set [1] and 4.91 in data set [3]. The Activity in data set [2] was found to be 5.2 µM.

In the case of `O=C1c2ccc([N+](=O)[O-])cc2C(=O)C2OC12` (stereo not given), the values for the pIC50 in data set [1] and in data set [3] were 5.64 and 4.26, respectively. In data set [2], the Activity came to 8.34 µM.

In turn, `Nc1cccc2c1C(=O)C1OC1C2=O` (stereo not given) showed a pIC50 in data set [1] of less than 4.30. Moreover, the Activity in data set [2] was determined as 1.68 µM.

`O=C1c2cccc(O)c2C(=O)C2OC12` (stereo not given) gave a pIC50 in data set [1] of 4.95. The Activity in data set [2] turned out to be 5.64 µM.

Take `CCOc1cccc2c1C(=O)C1OC1C2=O` (stereo not given): the pIC50 in data set [1] is 5.02. Also, the Activity in data set [2] worked out at 1.68 µM.

For `O=C1c2cccc(OCc3ccccc3)c2C(=O)C2OC12` (stereo not given), the pIC50 in data set [1] was 4.55. Moreover, the Activity in data set [2] worked out at 1.6 µM.

`O=C1c2cccc(OCc3ccc(C(F)(F)F)cc3)c2C(=O)C2OC12` (stereo not given) gave a pIC50 in data set [1] of less than 4.30. Besides, the Activity in data set [2] is 1.68 µM.

For `CC12OC1C(=O)c1ccccc1C2=O` (stereo not given), the values for the pIC50 in data set [4] and in data set [1] were 4.80 and 4.87, respectively. The Activity in data set [2] is 1.52 µM.

For `CC12OC1C(=O)c1c(OCc3ccccc3)cccc1C2=O` (stereo not given), the pIC50 in data set [1] is less than 4.30. Besides, the Activity in data set [2] was found to be 1.58 µM.

For `O=C1c2ccccc2C(=O)C2(c3ccccc3)OC12` (stereo not given), the negative-log IC50 (pIC50) in data set [1] is less than 4.30. In addition, in data set [2], the Activity stood at 1.44 µM.

`O=C1c2ccccc2C(=O)C2(c3cccc([N+](=O)[O-])c3)OC12` (stereo not given) gave a pIC50 in data set [1] of less than 4.30. The Activity in data set [2] was found to be 1.4 µM.

In data set [1], `CC(=O)c1ccc(C23OC2C(=O)c2ccccc2C3=O)cc1` (stereo not given) had a pIC50 of less than 4.30. The Activity in data set [2] stood at 1.36 µM.

Take `O=C1c2ccccc2C(=O)C2(c3ccc(F)cc3)OC12` (stereo not given): in data set [1], the pIC50 was 4.93. Moreover, in data set [2], the Activity is 1.36 µM.

`Cc1ccc(C23OC2C(=O)c2ccccc2C3=O)cc1` (stereo not given): the pIC50 in data set [1] is 4.69. Moreover, in data set [2], the Activity was 1.48 µM.

The molecule `COc1ccccc1C12OC1C(=O)c1ccccc1C2=O` (stereo not given) showed a pIC50 in data set [1] of 4.91. The Activity in data set [2] stood at 1.28 µM.

In turn, `COc1cccc(C23OC2C(=O)c2ccccc2C3=O)c1` (stereo not given) showed a pIC50 in data set [1] of less than 4.30. Further, in data set [2], the Activity turned out to be 1.46 µM.

Regarding `COc1ccc(C23OC2C(=O)c2ccccc2C3=O)cc1` (stereo not given), the pIC50 in data set [1] was 4.94. In data set [2], the Activity was found to be 1.4 µM.

For `COc1cccc2c1C(=O)c1c(O)c3c(c(O)c1C2=O)C[C@@](O)(C(=O)CO)C[C@@H]3O[C@H]1C[C@H](N)[C@H](O)[C@H](C)O1` [DOXORUBICIN], the pIC50 in data set [1] was 6.96; in data set [3], 6.15. Also, the “Ratio IC50” value in data set [5] was found to be 6.4.

These data come from ChEMBL document CHEMBL3217666, “Synthesis, thiol-mediated reactive oxygen species generation profiles and anti-proliferative activities of 2,3-epoxy-1,4-naphthoquinones” (Medchemcomm, 2012).
